Results reported in ChEMBL document CHEMBL4480438, “Inhibitory Properties of ATP-Competitive Coumestrol and Boldine Are Correlated to Different Modulations of CK2 Flexibility” (J Nat Prod, 2019).

Target: Casein kinase 2 (Homo sapiens, UniProt P67870+P68400+P19784+Q8NEV1)
Assay: Inhibition of CK2 (unknown origin)
Format: protein assay

**Q.** With `COc1cc2c(cc1O)C[C@H]1c3c(cc(O)c(OC)c3-2)CCN1C` [BOLDINE] as the molecule, how does the IC50 read?
**A.** The IC50 was 700 nM.
